For one compound, IC50 results are on record in patent US20250302833A1, “PHARMACEUTICAL COMPOSITION FOR TREATING OR PREVENTING CYSTIC DISEASE” (CHUGAI SEIYAKU KABUSHIKI KAISHA, priority 2022, published 2025).

The target of the test is T1, human PiT2 (Homo sapiens, UniProt Q08357).
T1 construct: expressed in transfected cells; host or cells: CHO cells, transient transfection with Fugene HD
T1 sequence (Q08357 1-652): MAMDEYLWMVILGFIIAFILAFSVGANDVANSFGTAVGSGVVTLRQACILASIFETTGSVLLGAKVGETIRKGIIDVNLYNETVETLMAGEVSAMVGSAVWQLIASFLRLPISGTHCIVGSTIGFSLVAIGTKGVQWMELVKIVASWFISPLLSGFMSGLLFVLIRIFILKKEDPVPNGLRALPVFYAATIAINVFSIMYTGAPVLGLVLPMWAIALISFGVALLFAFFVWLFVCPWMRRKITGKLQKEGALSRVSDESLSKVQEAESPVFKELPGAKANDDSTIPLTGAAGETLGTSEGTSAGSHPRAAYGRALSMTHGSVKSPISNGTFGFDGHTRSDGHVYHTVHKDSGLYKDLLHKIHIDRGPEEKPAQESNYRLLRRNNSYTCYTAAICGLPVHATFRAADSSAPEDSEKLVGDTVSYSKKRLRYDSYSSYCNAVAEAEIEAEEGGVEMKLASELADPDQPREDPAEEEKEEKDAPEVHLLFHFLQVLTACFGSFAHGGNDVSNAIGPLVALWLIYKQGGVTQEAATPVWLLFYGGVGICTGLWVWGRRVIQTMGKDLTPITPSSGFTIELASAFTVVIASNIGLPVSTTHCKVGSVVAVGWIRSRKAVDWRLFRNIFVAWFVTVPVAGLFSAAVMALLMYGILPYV
In words: 33PO4 uptake inhibition in CHO cells expressing human PiT2. Format: cell-based. As to conditions: CHO cells transiently expressing human PiT2, pH 6.5. The method, then: For transient expression, human NaPi-IIb expression plasmids, human PiT1 expression plasmids, human PiT2 expression plasmids, and Fugene HD Transfection (Promega Corporation) were added to CHO cells using a 96-well plate, and the plate was incubated in a C02 incubator for 16 hours. The medium was replaced with buffer A (145 mM choline chloride, 3 mM KCl, 1 mM CaCl2), 0.5 mM MgCl2, 5 mM glucose, 5 mM MES, (pH 6.5)), and then replaced with buffer B (145 mM NaCl, 3 mM KCl, 1 mM CaCl2, 0.5 mM MgCl2, 5 mM glucose, 5 mM MES (pH 6.5)) to which a test compound was added at the final concentration of 0.01, 0.03, 0.1, 0.3, 1, 3, 10, or 30 μM, buffer A to which DMSO was added, or buffer B to which DMSO was added. After a certain time, a 1/20 amount of buffer A containing ^33PO4 (PerkinElmer Japan G. K.) was added and reacted at room temperature. After washing with ice-cooled buffer A, a liquid scintillator (MicroScint™-20, item number 6013621, PerkinElmer Japan G.K.) was added, and the ^33PO4 uptake amount was measured with the top count (Top Count NXT, PerkinElmer Japan G.K.). The inhibition rate was determined by the following formula. Here, a certain time was set to 10 minutes. […]

Broadly, the IC50 is the point on the concentration scale where inhibition reaches its midpoint. Lower therefore signals greater potency. `CCCN([C@H]1CC[C@H](C(=O)[O-])CC1)S(=O)(=O)c1cccc(C(=O)Nc2sc3c(c2C(=O)Nc2ccc(CCCc4ccc(C(=O)[O-])cc4)cc2)CCCC3)c1.[Na+].[Na+]` [Compound 4, Disodium; 4-[3-[4-[[2-[[3-[(4-carboxylatocyclohexyl)-propylsulfamoyl]benzoyl]ami-no]-4,5,6,7-tetrahydro-1-benzothiophene-3-carbonyl]amino]phenyl]pro-pyl]benzoic acid] returned a half-inhibitory concentration (IC50) of more than 30 µM.
